Results on 16 compounds are retold here after BindingDB's records for doi:10.1021/bi990204w (National Institute of Diabetes and Digestive and Kidney …, 1999).

Where a SMILES comes first, the peptide text is derived from it. [ ]: non-standard residue; d: D form. The star is where a group is joined. dProψ(CH2NH)PheNH2 = NC(=O)[C@H](Cc1ccccc1)NC[C@H]1CCCN1*; X1 = CC(C)C[C@@H](CN[C@@H](CC(C)C)C(N)=O)N*; Hydrocinnamoyl = O=C(CCc1ccccc1)*; pGlu = O=C1CC[C@@H](C(=O)O)N1 A value given as a limit tells only on which side of the number the result lay.

Experiment [1] addresses T1, Bombesin receptor subtype-3 (Homo sapiens, UniProt P32247).
T1 sequence (P32247 whole entry): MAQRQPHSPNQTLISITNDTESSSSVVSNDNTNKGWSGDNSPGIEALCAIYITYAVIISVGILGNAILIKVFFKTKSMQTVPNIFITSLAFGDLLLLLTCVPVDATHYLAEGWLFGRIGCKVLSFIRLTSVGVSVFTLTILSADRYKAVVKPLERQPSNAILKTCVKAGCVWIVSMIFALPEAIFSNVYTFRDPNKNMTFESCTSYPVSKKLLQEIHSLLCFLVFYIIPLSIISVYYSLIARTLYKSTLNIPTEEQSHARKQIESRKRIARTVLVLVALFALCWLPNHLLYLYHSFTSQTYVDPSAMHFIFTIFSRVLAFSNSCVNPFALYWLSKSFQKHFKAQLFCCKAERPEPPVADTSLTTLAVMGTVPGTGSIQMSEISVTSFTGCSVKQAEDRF

The target of experiment [2] is Gastrin-releasing peptide receptor (Rattus norvegicus, UniProt P52500).
Sequence of Gastrin-releasing peptide receptor (P52500 whole entry N28S): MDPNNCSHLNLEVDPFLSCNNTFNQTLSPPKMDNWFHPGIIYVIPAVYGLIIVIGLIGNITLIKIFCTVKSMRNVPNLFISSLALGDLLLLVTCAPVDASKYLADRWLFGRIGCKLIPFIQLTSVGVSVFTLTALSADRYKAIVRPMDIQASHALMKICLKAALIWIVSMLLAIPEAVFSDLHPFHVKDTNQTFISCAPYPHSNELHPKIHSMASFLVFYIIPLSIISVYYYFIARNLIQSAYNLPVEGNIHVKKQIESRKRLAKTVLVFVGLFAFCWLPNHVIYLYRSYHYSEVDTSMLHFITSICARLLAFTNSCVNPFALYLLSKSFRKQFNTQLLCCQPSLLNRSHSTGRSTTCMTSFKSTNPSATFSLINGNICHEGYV
The target in experiment [3] is T2, Neuromedin-B receptor (Rattus norvegicus, UniProt P24053).
T2 sequence (P24053 whole entry): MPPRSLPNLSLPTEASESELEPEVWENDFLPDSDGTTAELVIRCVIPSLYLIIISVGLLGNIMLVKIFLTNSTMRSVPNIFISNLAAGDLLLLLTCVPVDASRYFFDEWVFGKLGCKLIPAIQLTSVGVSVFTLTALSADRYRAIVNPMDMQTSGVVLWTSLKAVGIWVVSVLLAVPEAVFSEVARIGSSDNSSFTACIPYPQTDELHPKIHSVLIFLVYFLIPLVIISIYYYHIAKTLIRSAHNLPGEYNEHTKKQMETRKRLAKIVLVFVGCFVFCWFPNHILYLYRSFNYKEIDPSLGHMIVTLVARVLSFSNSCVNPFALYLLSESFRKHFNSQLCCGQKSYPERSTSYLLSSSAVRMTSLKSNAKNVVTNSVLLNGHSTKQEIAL

Regarding `CSCC[C@H](NC(=O)[C@H](Cc1ccccc1)NC(=O)[C@H](Cc1cnc[nH]1)NC(=O)CNC(=O)[C@@H](NC(=O)[C@H](CCCN=C(N)N)NC(=O)[C@H](Cc1c[nH]c2ccccc12)NC(=O)[C@H](CCC(N)=O)NC(=O)[C@H](CC(N)=O)NC(=O)CNC(=O)[C@H](CC(C)C)NC(=O)[C@H](CO)NC(=O)[C@H](CCC(N)=O)NC(=O)[C@@H]1CCC(=O)N1)C(C)C)C(N)=O` [CAS_31362-50-2] ([pGlu]QSLGNQWRVGHFM-NH2), the Ki (in general, the equilibrium dissociation constant of an inhibitor or competing ligand from its target) in experiment [1] is 7.1 µM; in experiment [2] it was 3.2 µM; in experiment [3], > 10 µM.

`CCCCCCNC(=O)[C@H](CC(C)C)NC(=O)[C@H](Cc1cnc[nH]1)NC(=O)CNC(=O)[C@@H](NC(=O)[C@H](C)NC(=O)[C@H](Cc1c[nH]c2ccccc12)NC(=O)[C@H](CCC(N)=O)NC(=O)[C@H](N)Cc1ccccc1)C(C)C` [DPhe6-Bn(6-13)hexylamide]: the Ki was 3.2 µM in experiment [1], 0.1 µM in experiment [2] and > 10 µM in experiment [3].

With `CCCNC(=O)[C@H](CC(C)C)NC(=O)[C@H](Cc1cnc[nH]1)NC(=O)CNC(=O)[C@@H](NC(=O)[C@H](C)NC(=O)[C@H](Cc1c[nH]c2ccccc12)NC(=O)[C@H](CCC(N)=O)NC(=O)[C@H](N)Cc1ccccc1)C(C)C` [DPhe6-Bn(6-13)propylamide], the inhibition constant (Ki) in experiment [1] came to 1.9 µM; in experiment [2] it was 0.006 µM; in experiment [3], 4.6 µM.

For H-EGGGPQWAVGHFM-NH2 [PG-L], the Ki in experiment [1] came out at 5.3 µM; in experiment [2] it was 0.003 µM; in experiment [3] it was 0.21 µM.

Take `COC(=O)[C@H](CC(C)C)NC(=O)[C@H](Cc1cnc[nH]1)NC(=O)CNC(=O)[C@@H](NC(=O)[C@H](C)NC(=O)[C@H](Cc1c[nH]c2ccccc12)NC(=O)[C@H](CCC(N)=O)NC(=O)[C@H](N)Cc1ccccc1)C(C)C` [DPhe6-Bn(6-13)methylester]: the inhibitory constant (Ki) in experiment [1] is 5.3 µM; in experiment [2] it was 0.01 µM; in experiment [3], 7.7 µM.

In the case of `CSCC[C@H](NC(=O)[C@H](Cc1ccccc1)NC(=O)[C@H](Cc1c[nH]cn1)NC(=O)CNC(=O)[C@@H](NC(=O)[C@H](C)NC(=O)[C@H](Cc1c[nH]c2ccccc12)NC(=O)[C@H](CCC(N)=O)NC(=O)[C@@H]1CCC(=O)N1)C(C)C)C(N)=O` [CAS_5486808], the inhibition constant Ki came to 4.1 µM in experiment [1], 0.006 µM in experiment [2] and 0.007 µM in experiment [3].

For the compound `CC(C)C[C@H](NC(=O)[C@H](Cc1cnc[nH]1)NC(=O)CNC(=O)[C@@H](NC(=O)[C@H](C)NC(=O)[C@H](Cc1c[nH]c2ccccc12)NC(=O)[C@H](CCC(N)=O)NC(=O)[C@H](N)Cc1ccccc1)C(C)C)C(N)=O` [DPhe6-Bn(6-13)NH2], the inhibition constant (Ki) is > 10 µM in experiment [1], 0.027 µM in experiment [2] and > 10 µM in experiment [3].

Take `CC(C)C[C@@H](CN[C@@H](CC(C)C)C(N)=O)NC(=O)[C@H](Cc1cnc[nH]1)NC(=O)CNC(=O)[C@@H](NC(=O)[C@H](C)NC(=O)[C@H](Cc1c[nH]c2ccccc12)NC(=O)[C@H](CCC(N)=O)NC(=O)[C@H](CC(N)=O)NC(=O)CNC(=O)[C@H](CC(C)C)NC(=O)[C@H](CCCN=C(N)N)NC(=O)[C@H](CCC(N)=O)NC(=O)[C@@H]1CCC(=O)N1)C(C)C` [Leu13,Psi(CH2NH),Leu14-BN] ([pGlu]QRLGNQWAVGH-X1): the inhibition constant Ki in experiment [1] was > 10 µM; in experiment [2] it was 0.43 µM; in experiment [3], > 10 µM.

As to `CC(C)C[C@H](NC(=O)[C@H](Cc1cnc[nH]1)NC(=O)CNC(=O)[C@@H](NC(=O)[C@H](C)NC(=O)[C@H](Cc1c[nH]c2ccccc12)NC(=O)[C@H](CCC(N)=O)NC(=O)[C@H](N)Cc1ccccc1)C(C)C)C(=O)NN(C)C` [DPhe6-Bn(6-13)NHN(ME)2], the results for the Ki in experiment [1], in experiment [2] and in experiment [3] were > 10 µM, 3.2 µM and > 10 µM, respectively.

For the compound `CC(C)C[C@@H](CN[C@@H](Cc1ccc(Cl)cc1)C(N)=O)NC(=O)[C@H](Cc1c[nH]cn1)NC(=O)CNC(=O)[C@@H](NC(=O)[C@H](C)NC(=O)[C@H](Cc1c[nH]c2ccccc12)NC(=O)[C@H](CCC(N)=O)NC(=O)[C@H](N)Cc1ccccc1)C(C)C` [DPhe6,Leu13,Psi(CH2NH),Cpa14-Bn(6-14)], the inhibitory constant (Ki) in experiment [1] is > 10 µM; in experiment [2] it was 0.042 µM; in experiment [3], 2.7 µM.

Take `CC(C)C[C@H](NC(=O)[C@H](CC(C)C)NC(=O)[C@@H](Cc1c[nH]c2ccccc12)NC(=O)[C@H](Cc1ccccc1)NC(=O)[C@@H](Cc1c[nH]c2ccccc12)NC(=O)[C@H](CCC(N)=O)NC(=O)[C@H](CCC(N)=O)NC(=O)[C@@H]1CCCN1C(=O)[C@H](CCCCN)NC(=O)[C@@H]1CCCN1C(=O)[C@H](N)CCCN=C(N)N)C(N)=O` [Substance P,[DArg1,DTrp7,9,Leu11]] (H-[dR]PKPQQ[dW]F[dW]LL-NH2): the Ki in experiment [1] is > 10 µM; in experiment [2], 11.3 µM; in experiment [3], 4.1 µM.

For `CSCC[C@H](NC(=O)[C@H](CC(C)C)NC(=O)[C@H](Cc1c[nH]cn1)NC(=O)CNC(=O)[C@@H](NC(=O)[C@H](C)NC(=O)[C@H](Cc1c[nH]c2ccccc12)NC(=O)[C@H](Cc1c[nH]cn1)NC(=O)[C@H](CC(N)=O)NC(=O)CNC(=O)[C@H](CCCN=C(N)N)NC(=O)[C@@H]1CCCN1C(=O)[C@H](Cc1ccc(O)cc1)NC(=O)[C@H](CCSC)NC(=O)[C@H](CCCCN)NC(=O)[C@@H](NC(=O)[C@H](CC(C)C)NC(=O)[C@@H](NC(=O)[C@@H](NC(=O)CNC(=O)CNC(=O)CNC(=O)[C@H](C)NC(=O)[C@@H]1CCCN1C(=O)[C@H](CC(C)C)NC(=O)[C@@H]1CCCN1C(=O)[C@@H](N)C(C)C)[C@@H](C)O)C(C)C)[C@@H](C)O)C(C)C)C(N)=O` [CAS_93755-85-2], the inhibitory constant (Ki) in experiment [1] was > 10 µM; in experiment [3], 0.44 µM.

As for `CSCC[C@H](NC(=O)[C@H](CC(C)C)NC(=O)[C@H](Cc1cnc[nH]1)NC(=O)CNC(=O)[C@@H](NC(=O)[C@H](C)NC(=O)[C@H](Cc1c[nH]c2ccccc12)NC(=O)[C@H](Cc1cnc[nH]1)NC(=O)[C@H](CC(N)=O)NC(=O)CN)C(C)C)C(N)=O` [GRP-10,frog], the Ki in experiment [1] was > 10 µM; in experiment [2], 0.13 µM; in experiment [3] it was > 10 µM.

Regarding `CSCC[C@H](NC(=O)[C@@H](Cc1c[nH]c2ccccc12)NC(=O)[C@@H](Cc1c[nH]c2ccccc12)NC(=O)[C@H](Cc1ccccc1)NC(=O)[C@@H](Cc1c[nH]c2ccccc12)NC(=O)[C@H](CCC(N)=O)NC(=O)[C@H](CCC(N)=O)NC(=O)[C@H]1CCCN1)C(N)=O` [Substance P(4-11),[Dpro4,Dtrp7,9,10]] (H-[dP]QQ[dW]F[dW][dW]M-NH2), the inhibition constant Ki in experiment [1] was 2.3 µM; in experiment [2] it was > 10 µM; in experiment [3], 2.5 µM.

With `CSCC[C@H](NC(=O)[C@H](Cc1ccccc1)NC(=O)[C@H](Cc1c[nH]cn1)NC(=O)CNC(=O)[C@@H](NC(=O)[C@H](C)NC(=O)[C@H](Cc1c[nH]c2ccccc12)NC(=O)[C@H](CCC(N)=O)NC(=O)[C@@H]1CCCN1C(=O)[C@@H](NC(=O)[C@@H]1CCC(=O)N1)C(C)C)C(C)C)C(N)=O` [CAS_29451-71-6] ([pGlu]VPQWAVGHFM-NH2), the figures for the inhibitory constant (Ki) in experiment [1], in experiment [2] and in experiment [3] were 6.9 µM, 0.002 µM and 0.013 µM, respectively.

For `CC(C)[C@H](NC(=O)[C@H](C)NC(=O)[C@H](Cc1c[nH]c2ccccc12)NC(=O)[C@H](Cc1cnc[nH]1)NC(=O)CCc1ccccc1)C(=O)N[C@H](C)C(=O)N[C@@H](Cc1cnc[nH]1)C(=O)N1CCC[C@@H]1CN[C@@H](Cc1ccccc1)C(N)=O` [CAS_l] (Hydrocinnamoyl-HWAV[dA]H-{dProψ(CH2NH)PheNH2}), the Ki in experiment [2] was 0.00074 µM; in experiment [3] it was > 10 µM.
